Test results from US8192717B2, “Composition for diagnosing amyloid-related diseases” (Nagasaki University, priority 2004, dated 2012).

Legend:
[1] = Radioactivity distribution in mouse body after intravenous administration of radioiodine labeled forms; conditions: for Distribution of radioactivity, Blood / Distribution of radioactivity, Brain / Distribution of radioactivity, Heart / Distribution of radioactivity, Intestine / Distribution of radioactivity, Kidney / Distribution of radioactivity, Liver / Distribution of radioactivity, Spleen: mouse, intravenous administration, mean (SD) of 3 to 5 mice
Method: Thereafter, 100 μl (0.5 to 1 μCi) of each labeled form was intravenously administered to each group consisting of three to five 5-week-old ddY male mice (25 to 30 g). 2, 10, 30, and 60 minutes after the intravenous administration, such mice were decapitated, and blood was collected. Thereafter, organs were excised, and the weight and radioactivity thereof were then measured.

Aβ(1-40) aggregates = target: T1, Aβ(1-40) aggregates (Homo sapiens, UniProt P05067); experiment: In vitro binding of [125I]-labelled compounds to Aβ aggregates (filtration, radioactivity on filter); conditions: [125I]-labelled compound; radioactivity remaining on filter in presence vs absence of Aβ aggregates
T1 construct: The amyloid β protein (Human, 1-40) [HCl form]; purchased Peptide Institute, Inc
Method: Aβ aggregates was dissolved in a buffer (pH 7.4) that contained 10 mM sodium phosphate and 1 mM EDTA, resulting in a concentration of 0.5 mg/ml. Thereafter, the obtained solution was incubated at 37° C. for 36 to 42 hours. A binding experiment was carried out using 12×75 mm borosilicate glass tubes. […] The obtained mixture was left at room temperature for 3 hours. Non-specific bond was calculated using nonradioactive compound 11 (1 μM). […] The radioactivity of a substance remaining in the filter used in filtration was measured with a γ counter. With regard to [^125I] compound 11, the Kd value thereof was calculated by the Scatchard analysis. In addition, using [^125I] compound 11 as a radioactive ligand, an inhibition experiment was carried out by the following method using the Aβ(1-40) aggregates and the Aβ(1-42) aggregates. […] The obtained mixture was left at room temperature for 3 hours. Non-specific bond was calculated using nonradioactive compound 11 (1 μM). The 50% inhibitory concentration was calculated using GraphPad Prism (GraphPad Software), and the inhibition constant (Ki value) was calculated according to the formula of Cheng-Prusoff, Ki=IC50/(1+[L]/Kd). In this formula, [L] represents the concentration of [^125I] compound 11, and Kd represents the dissociation constant of [^125I] compound 11 to the Aβ(1-40) aggregates and the Aβ(1-42) aggregates.

[2] = normal mice, intravenous, [125I]-labelled form

T1 sequence (P05067 672-711 limits assumed): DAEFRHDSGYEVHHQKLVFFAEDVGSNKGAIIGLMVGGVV

Compound | Distribution of radioactivity, Blood ([1]; 2 min after administration) | Distribution of radioactivity, Blood ([1]; 10 min after administration) | Distribution of radioactivity, Blood ([1]; 30 min after administration) | Distribution of radioactivity, Blood ([1]; 60 min after administration) | Distribution of radioactivity, Brain ([1]; 2 min after administration) | Distribution of radioactivity, Brain ([1]; 10 min after administration) | Distribution of radioactivity, Brain ([1]; 30 min after administration) | Distribution of radioactivity, Brain ([1]; 60 min after administration) | Distribution of radioactivity, Heart ([1]; 2 min after administration) | Distribution of radioactivity, Heart ([1]; 10 min after administration) | Distribution of radioactivity, Heart ([1]; 30 min after administration) | Distribution of radioactivity, Heart ([1]; 60 min after administration) | Distribution of radioactivity, Intestine ([1]; 2 min after administration) | Distribution of radioactivity, Intestine ([1]; 10 min after administration) | Distribution of radioactivity, Intestine ([1]; 30 min after administration) | Distribution of radioactivity, Intestine ([1]; 60 min after administration) | Distribution of radioactivity, Kidney ([1]; 2 min after administration) | Distribution of radioactivity, Kidney ([1]; 10 min after administration) | Distribution of radioactivity, Kidney ([1]; 30 min after administration) | bindability to the Aβ aggregates (Aβ(1-40) aggregates) | other results
Nc1ccc(C=Cc2cc(=O)c3cc([125I])ccc3o2)cc1 [[125I]Compound 46] | 2.34 (0.16) % ID/g | 2.44 (0.19) % ID/g | 2.56 (0.64) % ID/g | 2.27 (0.47) % ID/g | 4.88 (0.47) % ID/g | 4.40 (0.44) % ID/g | 2.78 (0.72) % ID/g | 1.62 (0.40) % ID/g | 8.40 (0.47) % ID/g | 3.78 (0.35) % ID/g | 2.43 (0.70) % ID/g | 1.64 (0.29) % ID/g | 2.84 (0.18) % ID/g | 5.51 (0.55) % ID/g | 11.71 (1.27) % ID/g | 16.08 (2.44) % ID/g | 11.94 (1.49) % ID/g | 6.99 (0.91) % ID/g | 4.91 (1.07) % ID/g | – | Distribution of radioactivity, Kidney ([1]; 60 min after administration): 3.76 (0.91) % ID/g; Distribution of radioactivity, Liver ([1]; 2 min after administration): 13.23 (1.65) % ID/g; Distribution of radioactivity, Liver ([1]; 10 min after administration): 14.49 (1.10) % ID/g; Distribution of radioactivity, Liver ([1]; 30 min after administration): 10.27 (1.84) % ID/g; Distribution of radioactivity, Liver ([1]; 60 min after administration): 8.16 (1.33) % ID/g; Distribution of radioactivity, Spleen ([1]; 2 min after administration): 4.23 (0.62) % ID/g; Distribution of radioactivity, Spleen ([1]; 10 min after administration): 3.64 (0.38) % ID/g; Distribution of radioactivity, Spleen ([1]; 30 min after administration): 2.92 (0.73) % ID/g; Distribution of radioactivity, Spleen ([1]; 60 min after administration): 2.16 (0.85) % ID/g
CNc1ccc(C=Cc2cc(=O)c3cc([125I])ccc3o2)cc1 [[125I]Compound 47] | 3.21 (0.38) % ID/g | 2.44 (0.082) % ID/g | 2.19 (0.29) % ID/g | 1.79 (0.23) % ID/g | 2.84 (0.35) % ID/g | 2.96 (0.25) % ID/g | 1.86 (0.30) % ID/g | 0.99 (0.09) % ID/g | 6.92 (1.41) % ID/g | 3.31 (0.69) % ID/g | 2.09 (0.39) % ID/g | 1.47 (0.27) % ID/g | 2.59 (0.38) % ID/g | 8.55 (1.21) % ID/g | 16.72 (2.58) % ID/g | 19.16 (2.63) % ID/g | 10.41 (1.33) % ID/g | 7.05 (0.56) % ID/g | 5.48 (0.97) % ID/g | – | Distribution of radioactivity, Kidney ([1]; 60 min after administration): 3.52 (1.36) % ID/g; Distribution of radioactivity, Liver ([1]; 2 min after administration): 14.55 (2.64) % ID/g; Distribution of radioactivity, Liver ([1]; 10 min after administration): 14.41 (2.52) % ID/g; Distribution of radioactivity, Liver ([1]; 30 min after administration): 11.13 (1.63) % ID/g; Distribution of radioactivity, Liver ([1]; 60 min after administration): 7.82 (0.94) % ID/g; Distribution of radioactivity, Spleen ([1]; 2 min after administration): 3.88 (0.74) % ID/g; Distribution of radioactivity, Spleen ([1]; 10 min after administration): 4.42 (1.05) % ID/g; Distribution of radioactivity, Spleen ([1]; 30 min after administration): 2.66 (0.47) % ID/g; Distribution of radioactivity, Spleen ([1]; 60 min after administration): 1.51 (0.19) % ID/g
CN(C)c1ccc(C=Cc2cc(=O)c3cc([125I])ccc3o2)cc1 [[125I]Compound 48] | 14.54 (3.37) % ID/g | 3.50 (1.13) % ID/g | 1.5 (0.22) % ID/g | 0.80 (0.21) % ID/g | 0.70 (0.10) % ID/g | 0.72 (0.14) % ID/g | 1.02 (0.23) % ID/g | 0.77 (0.25) % ID/g | 8.89 (1.94) % ID/g | 4.00 (0.93) % ID/g | 2.36 (0.51) % ID/g | 1.42 (0.38) % ID/g | 1.52 (0.09) % ID/g | 4.8 (0.74) % ID/g | 11.98 (1.26) % ID/g | 14.91 (4.18) % ID/g | 9.04 (1.72) % ID/g | 5.58 (1.07) % ID/g | 5.16 (1.06) % ID/g | – | Distribution of radioactivity, Kidney ([1]; 60 min after administration): 3.94 (1.25) % ID/g; Distribution of radioactivity, Liver ([1]; 2 min after administration): 20.56 (3.98) % ID/g; Distribution of radioactivity, Liver ([1]; 10 min after administration): 15.09 (2.63) % ID/g; Distribution of radioactivity, Liver ([1]; 30 min after administration): 12.82 (1.96) % ID/g; Distribution of radioactivity, Liver ([1]; 60 min after administration): 8.79 (1.80) % ID/g; Distribution of radioactivity, Spleen ([1]; 2 min after administration): 5.09 (0.75) % ID/g; Distribution of radioactivity, Spleen ([1]; 10 min after administration): 4.06 (0.66) % ID/g; Distribution of radioactivity, Spleen ([1]; 30 min after administration): 3.15 (0.70) % ID/g; Distribution of radioactivity, Spleen ([1]; 60 min after administration): 2.82 (0.36) % ID/g
COc1cc(/C=C/C(=O)c2cccc(I)c2)ccc1O [compound 31, (E)-3-(4-hydroxy-3-methoxyphenyl)-1-(3-iodophenyl)propan-2-en-1-one] | – | – | – | – | – | – | – | – | – | – | – | – | – | – | – | – | – | – | – | high binding affinity | ability to transfer to the brain (in words) [1, 2]: transfers to the brain; washing out / disappearance of radioactivity from the brain [1, 2]: washed out rapidly
CN(C)c1ccc(/C=C/C(=O)c2ccc(I)cc2)cc1 [compound 36, (E)-3-(4-(dimethylamino)phenyl)-1-(4-iodophenyl)propan-2-en-1-one] | – | – | – | – | – | – | – | – | – | – | – | – | – | – | – | – | – | – | – | high binding affinity | –
Nc1ccc(C=Cc2cc(=O)c3cc(I)ccc3o2)cc1 [compound 46, 6-iodo-4′-aminostyrylchromone] | – | – | – | – | – | – | – | – | – | – | – | – | – | – | – | – | – | – | – | high binding affinity | ability to transfer to the brain [1, 2]: 4.9 % ID/g; washing out / disappearance of radioactivity from the brain [1, 2]: rapid disappearance of radioactivity
CNc1ccc(C=Cc2cc(=O)c3cc(I)ccc3o2)cc1 [compound 47, 6-iodo-4′-methylaminostyrylchromone] | – | – | – | – | – | – | – | – | – | – | – | – | – | – | – | – | – | – | – | high binding affinity | ability to transfer to the brain [1, 2]: 3.0 % ID/g; washing out / disappearance of radioactivity from the brain [1, 2]: rapid disappearance of radioactivity
CN(C)c1ccc(C=Cc2cc(=O)c3cc(I)ccc3o2)cc1 [compound 48, 6-iodo-4′-dimethylaminostyrylchromone] | – | – | – | – | – | – | – | – | – | – | – | – | – | – | – | – | – | – | – | high binding affinity | ability to transfer to the brain (in words) [1, 2]: low; radioactivity retention in the blood [1, 2]: high radioactivity retention ability in the blood
